The subject of data set [1] is mammary gland tumorigenesis induced by estrogen. The data set can be described thus: E2-induced mammary tumors (Example Four). Type of data set: in vivo, female ACI rats. An excerpt: FIG. 2 is a graphical representation of the preventative effects of Morinda citrifolia-containing compounds on mammary gland tumorigenesis induced by estrogen in female ACI rats in accordance with the present invention.
Sixty five-week old female rats were divided into four groups of fifteen rats each and placed on regular diets. Another eight female rats served as age-matched controls. One group of experimental rats was given 5% placebo in drinking water, the second experimental group was given 5% Morinda citrifolia juice in drinking water, the third experimental group was given 5% Methylsulfonylmethane (“MSM”) in drinking water, and the fourth experimental group was given a combination of 5% Morinda citrifolia juice and 5% MSM in drinking water. Two weeks later, all animals were implanted subcutaneously with a 25 mg pellet containing 22.5 mg of 17β-estradiol (E2) mixed with 2.5 mg cholesterol. Each experimental group was provided with its respective formulation for ninety days following estrogen (E2) implantation. The age-matched control animals received a 25 mg cholesterol pellet implant.
All rats with an E2 implant in the placebo group had mammary gland tumors. One hundred percent (100%) of the rats in this group had three to seven tumors. Seventy-one percent (71%) of the rats in the Morinda citrifolia group had two to five tumors. Fifty-seven percent (57%) of the rats in the MSM group had one to four tumors. Forty-three percent (43%) of the rats in the combination group had zero to three tumors.
The average tumor area in the placebo group, Morinda citrifolia group, MSM group, and combination group at 180 days after E2 implantation were 17, 12, 10 and 6 mm^2, respectively. The survival rates of the control, placebo, Morinda citrifolia, MSM and combination groups one hundred and sixty days after E2 implantation were 100%, 0%, 47%, 73%, and 87%, respectively. The survival rates of each group at one hundred eighty days after E2 implantation was 100%, 0%, 0%, 20% and 60%, respectively. At two hundred days, the survival rates of each group were 100%, 0%, 0%, 0%, and 27%, respectively.

In data set [2] the test system is mammary carcinogenesis induced by DMBA. Kind of data set: DMBA-induced mammary carcinogenesis, Morinda citrifolia/MSM combination (Example Five). Type of data set: in vivo, female SD rats. The text has this:
In research supporting the present invention, the cancer preventive effects of Morinda citrifolia, MSM, and their combination at the initiation stage of multiple stage chemical carcinogenesis was investigated on a mammary breast carcinogenic animal model induced by DMBA in female SD rats. In the experiment, seventy-five female SD rats were divided into five groups: age-matched control, DMBA, 5% Morinda citrifolia+DMBA, 5% MSM+DMBA, and 5% Morinda citrifolia+5% MSM+DMBA groups. The experiment was started at the 35th postnatal day with water being given to the age-matched control group and the DMBA group, while 5% Morinda citrifolia, 5% MSM, and 5% Morinda citrifolia+5% MSM was supplied to the Morinda citrifolia, MSM, and Morinda citrifolia+MSM+DMBA groups. DMBA (25 mg/kg) was administered by mouth at the 50th postnatal day in the DMBA, Morinda citrifolia+DMBA, MSM+DMBA, and Morinda citrifolia+MSM+DMBA groups. Morinda citrifolia, MSM, Morinda citrifolia+MSM were continuously supplied for an additional 90 days after DMBA administration. All animals were sacrificed at the 9th month after DMBA treatment to examine the pathological changes in the mammary glands by light microscopy. […] Therefore, this synergistic combination regimen may contribute to human breast cancer prevention at the initiation stage of carcinogenesis. […]

Setting [3] is: 5% in drinking water from two weeks before to ninety days after E2 implantation.

Regarding `CS(C)(=O)=O` [MSM, methylsulfonylmethane], the “number of tumors per rat” value in data set [1] (setting [3]) is recorded as “one to four”. Moreover, in data set [1] (setting [3]), the “percent of the rats with mammary tumors” value was determined as 57%. For the same molecule, in data set [1] (5% in drinking water, E2 implant), the body weight entry is recorded as “slight body weight loss”. In addition, the average tumor area in data set [1] (180 days after E2 implantation) was found to be 10 mm^2. Moreover, the survival rate in data set [1] (one hundred and sixty days after E2 implantation) turned out to be 73%; in data set [1] (one hundred eighty days after E2 implantation) it was 20%; in data set [1] (two hundred days after E2 implantation) it was 0%. For the same molecule, in data set [2] (5% each, sacrificed 9th month after DMBA), the mild hyperplasia was 75%. Moreover, the “benign tumor or carcinoma in mammary glands by light microscopy” value in data set [2] (5% from 35th postnatal day until 90 days after DMBA 25 mg/kg by mouth, sacrificed 9th month) is “No benign tumor or carcinoma was observed”.

The record behind these values is patent US20070259060A1, “Formulations and Methods for Treating Breast Cancer with Morinda Citrifolia and Methylsulfonymethane” (priority 2003, published 2007).
